Experimental data published in ChEMBL document CHEMBL1201862, “PubChem BioAssay data set” (2004).
The source made the active and inactive calls.

Tests used:
[1] = system: Escherichia coli; assay: microbe, parasite or virus in culture
[2] = target: Phospholipase A2 (Homo sapiens, UniProt P04054); assay type: functional;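 further: confirmatory dose-response counterscreen on phospholipase A2, testing hits that came from an ultra-high-throughput screen for ATG4B inhibitors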
[3] = target: T1, Protein Tat (Human immunodeficiency virus type 1 group M subtype B (isolate HXB2)(HIV-1), UniProt P04608); assay type: functional;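 further: tat binding to TAR RNA read out by fluorescence polarization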
T1 sequence (P04608 whole entry): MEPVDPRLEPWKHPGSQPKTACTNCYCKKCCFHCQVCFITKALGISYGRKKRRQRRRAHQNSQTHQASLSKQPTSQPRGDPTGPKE

[4] = system: Escherichia coli; assay: microbe, parasite or virus in culture; remark: listed apart in the source
[5] = target: T2, Cysteine protease ATG4B (Homo sapiens, UniProt Q9Y4P1); assay type: functional;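 further: Fluorescence-based dose-response confirmation assay measuring inhibition of ATG4B activity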
T2 sequence (Q9Y4P1 whole entry): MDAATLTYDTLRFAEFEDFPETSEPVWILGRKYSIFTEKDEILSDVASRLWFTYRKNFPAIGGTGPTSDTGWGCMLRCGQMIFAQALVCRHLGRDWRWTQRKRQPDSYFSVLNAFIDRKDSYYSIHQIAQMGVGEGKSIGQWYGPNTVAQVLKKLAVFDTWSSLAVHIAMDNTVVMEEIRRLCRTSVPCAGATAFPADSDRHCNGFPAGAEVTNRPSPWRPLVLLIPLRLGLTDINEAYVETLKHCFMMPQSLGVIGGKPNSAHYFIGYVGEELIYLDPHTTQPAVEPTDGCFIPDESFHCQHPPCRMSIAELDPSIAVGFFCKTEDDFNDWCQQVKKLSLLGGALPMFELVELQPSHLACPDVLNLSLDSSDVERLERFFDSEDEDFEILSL

[6] = target: Cytochrome P450 2C19 (Homo sapiens, UniProt P33261); assay: Cytochrome panel assay with activity outcomes. Panel member name: p450-cyp2c19 Compounds with AC50 equal or less than 10 uM are considered active; assay type: functional; details: read-out: AC50
Sequence of Cytochrome P450 2C19 (P33261 whole entry): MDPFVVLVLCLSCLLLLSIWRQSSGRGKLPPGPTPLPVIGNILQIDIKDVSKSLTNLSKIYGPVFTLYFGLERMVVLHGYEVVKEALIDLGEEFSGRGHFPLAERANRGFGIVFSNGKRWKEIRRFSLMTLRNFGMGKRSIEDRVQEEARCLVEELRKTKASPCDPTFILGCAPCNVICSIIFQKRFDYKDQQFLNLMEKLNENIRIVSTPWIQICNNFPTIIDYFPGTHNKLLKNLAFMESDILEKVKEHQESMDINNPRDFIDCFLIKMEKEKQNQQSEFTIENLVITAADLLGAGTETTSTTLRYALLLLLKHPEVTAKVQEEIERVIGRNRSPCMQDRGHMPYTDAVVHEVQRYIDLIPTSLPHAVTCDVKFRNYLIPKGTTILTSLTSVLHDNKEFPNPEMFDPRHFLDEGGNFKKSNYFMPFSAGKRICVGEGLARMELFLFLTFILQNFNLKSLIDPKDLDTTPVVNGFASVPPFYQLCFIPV

[7] = target: Peroxisome proliferator-activated receptor gamma/Nuclear receptor coactivator 2 (Homo sapiens, UniProt P37231); assay: (§1) TR-FRET dose response biochemical High Throughput Screening assay for agonists of the steroid receptor coactivator 2 (SRC-2) recruitment by the peroxisome proliferator-activated receptor gamma (PPAR gamma): non-selective agonists. [Related pubchem assays: 1297, 1032 ]; assay type: functional
[8] = target: Cytochrome P450 2D6 (Homo sapiens, UniProt P10635)
Sequence of Cytochrome P450 2D6 (P10635 whole entry): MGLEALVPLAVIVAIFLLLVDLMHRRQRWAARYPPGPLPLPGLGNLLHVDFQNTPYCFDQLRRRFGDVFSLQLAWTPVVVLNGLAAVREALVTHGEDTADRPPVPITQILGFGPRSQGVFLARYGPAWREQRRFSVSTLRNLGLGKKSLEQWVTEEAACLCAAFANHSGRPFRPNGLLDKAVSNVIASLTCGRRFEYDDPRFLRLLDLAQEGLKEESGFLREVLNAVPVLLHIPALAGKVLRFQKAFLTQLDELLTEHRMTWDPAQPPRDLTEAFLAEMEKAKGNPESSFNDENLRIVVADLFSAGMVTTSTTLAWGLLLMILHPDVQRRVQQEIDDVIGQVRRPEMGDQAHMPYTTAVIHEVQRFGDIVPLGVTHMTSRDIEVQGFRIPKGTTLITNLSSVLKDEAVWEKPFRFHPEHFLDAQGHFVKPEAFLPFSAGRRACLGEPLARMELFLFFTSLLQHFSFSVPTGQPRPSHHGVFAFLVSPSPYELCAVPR

[9] = target: Cytochrome P450 2C9 (Homo sapiens, UniProt P11712)
Sequence of Cytochrome P450 2C9 (P11712 whole entry): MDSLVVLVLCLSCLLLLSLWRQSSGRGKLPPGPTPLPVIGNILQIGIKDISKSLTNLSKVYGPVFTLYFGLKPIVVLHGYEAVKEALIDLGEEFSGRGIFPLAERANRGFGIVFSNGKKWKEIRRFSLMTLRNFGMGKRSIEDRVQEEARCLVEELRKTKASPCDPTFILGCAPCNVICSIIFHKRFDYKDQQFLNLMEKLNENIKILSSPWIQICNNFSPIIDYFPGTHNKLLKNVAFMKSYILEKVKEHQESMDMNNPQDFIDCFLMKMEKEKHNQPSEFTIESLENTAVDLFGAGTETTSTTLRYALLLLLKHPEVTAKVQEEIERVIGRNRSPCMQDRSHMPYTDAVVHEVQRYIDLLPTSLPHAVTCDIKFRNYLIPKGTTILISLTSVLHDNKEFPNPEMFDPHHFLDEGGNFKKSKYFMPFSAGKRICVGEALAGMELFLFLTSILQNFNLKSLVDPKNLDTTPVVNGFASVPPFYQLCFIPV

[10] = target: Peroxisome proliferator-activated receptor gamma/Nuclear receptor coactivator 1 (Homo sapiens, UniProt P37231); assay: as §1, with “1 (SRC-1)” for “2 (SRC-2)”, “assays (depositor defined):AID1300, AID1808, AID504735, AID631]” for “assays: 1297, 1032 ]”; assay type: protein assay
Sequence of Peroxisome proliferator-activated receptor gamma/Nuclear receptor coactivator 1 (P37231 whole entry): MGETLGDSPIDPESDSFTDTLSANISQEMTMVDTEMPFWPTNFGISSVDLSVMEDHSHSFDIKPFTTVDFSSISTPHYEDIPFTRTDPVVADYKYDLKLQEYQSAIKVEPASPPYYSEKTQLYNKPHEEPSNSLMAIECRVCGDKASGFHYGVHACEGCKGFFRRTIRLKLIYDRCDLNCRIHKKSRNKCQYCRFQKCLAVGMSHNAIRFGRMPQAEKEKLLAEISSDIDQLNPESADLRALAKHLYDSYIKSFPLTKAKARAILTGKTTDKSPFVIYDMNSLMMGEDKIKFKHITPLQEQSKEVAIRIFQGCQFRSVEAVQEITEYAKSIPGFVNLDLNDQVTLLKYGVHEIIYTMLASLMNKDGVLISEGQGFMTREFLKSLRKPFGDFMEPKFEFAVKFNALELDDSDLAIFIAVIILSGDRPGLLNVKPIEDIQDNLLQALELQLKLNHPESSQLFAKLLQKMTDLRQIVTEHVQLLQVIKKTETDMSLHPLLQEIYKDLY
Sequence of Peroxisome proliferator-activated receptor gamma/Nuclear receptor coactivator 1 (Q15788 whole entry, further chain): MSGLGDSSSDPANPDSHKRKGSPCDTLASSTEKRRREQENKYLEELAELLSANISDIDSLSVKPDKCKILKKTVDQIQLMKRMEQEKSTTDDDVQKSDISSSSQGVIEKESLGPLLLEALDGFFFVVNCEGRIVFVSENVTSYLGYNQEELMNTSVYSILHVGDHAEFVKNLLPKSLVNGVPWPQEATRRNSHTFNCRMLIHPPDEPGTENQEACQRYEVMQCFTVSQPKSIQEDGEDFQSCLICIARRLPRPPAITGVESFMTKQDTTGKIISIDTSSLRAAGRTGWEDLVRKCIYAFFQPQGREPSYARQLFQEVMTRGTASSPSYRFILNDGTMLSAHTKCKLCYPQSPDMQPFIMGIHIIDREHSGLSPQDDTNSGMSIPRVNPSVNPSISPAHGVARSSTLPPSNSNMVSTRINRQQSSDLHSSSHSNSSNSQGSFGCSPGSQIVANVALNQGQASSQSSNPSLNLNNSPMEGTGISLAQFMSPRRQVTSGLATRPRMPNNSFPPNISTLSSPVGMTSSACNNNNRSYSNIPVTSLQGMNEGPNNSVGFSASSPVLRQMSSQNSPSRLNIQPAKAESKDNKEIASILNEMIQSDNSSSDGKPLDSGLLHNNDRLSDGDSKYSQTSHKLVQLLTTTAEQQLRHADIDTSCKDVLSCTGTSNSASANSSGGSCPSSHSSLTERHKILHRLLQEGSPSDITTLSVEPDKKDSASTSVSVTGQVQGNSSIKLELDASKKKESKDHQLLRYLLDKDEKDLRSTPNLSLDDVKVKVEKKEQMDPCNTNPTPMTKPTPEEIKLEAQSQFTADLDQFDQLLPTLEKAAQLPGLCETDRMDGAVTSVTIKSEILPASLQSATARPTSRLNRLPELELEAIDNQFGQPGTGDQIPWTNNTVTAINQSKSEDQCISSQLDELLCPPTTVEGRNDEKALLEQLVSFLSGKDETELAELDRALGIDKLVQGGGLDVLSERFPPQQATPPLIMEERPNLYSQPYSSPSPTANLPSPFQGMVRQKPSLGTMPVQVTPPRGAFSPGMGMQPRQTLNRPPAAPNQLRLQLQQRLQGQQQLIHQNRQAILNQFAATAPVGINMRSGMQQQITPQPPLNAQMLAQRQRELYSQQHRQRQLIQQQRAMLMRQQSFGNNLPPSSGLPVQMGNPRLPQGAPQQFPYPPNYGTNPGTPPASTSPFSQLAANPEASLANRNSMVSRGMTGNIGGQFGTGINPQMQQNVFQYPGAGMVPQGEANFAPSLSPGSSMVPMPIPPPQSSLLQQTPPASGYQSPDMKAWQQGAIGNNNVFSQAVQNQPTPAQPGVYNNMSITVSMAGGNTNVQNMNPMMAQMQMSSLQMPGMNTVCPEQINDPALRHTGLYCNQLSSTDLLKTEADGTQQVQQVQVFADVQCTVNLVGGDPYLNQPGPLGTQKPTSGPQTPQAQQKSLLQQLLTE

[11] = target: Peroxisome proliferator-activated receptor gamma/Nuclear receptor coactivator 3 (Homo sapiens, UniProt P37231); assay: as §1, with “3 (SRC-3)” for “2 (SRC-2)”, “1301 (Confirmation screen.), 1048 (Primary screen.)]” for “1297, 1032 ]”; assay type: functional
[12] = system: Streptococcus; assay: GAS UMAA2166 growth inhibition – luminescence, BacTiterGlo, counter-screen for streptokinase expression inhibitor project, dose response (AID 1915); assay type: functional, organism-based;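 further: potency for reduction of bacterial viability or growth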
[13] = target: T3, Serine/threonine-protein phosphatase (Candida dubliniensis (strain CD36 / CBS 7987 / NCPF 3949 / NRRLY-17841) (Yeast), UniProt B9W6M3); assay: blockers of CaCl2-induced CDRE-lacZ signaling – S. cerevisiae, luminescence, secondary, dose response (AID 2388); assay type: functional, cell-based;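 further: yeast reporter cells carrying a calcineurin-responsive lacZ construct stimulated with calcium chloride; luminescent beta-galactosidase reporter signal in whole cells rather than isolated phosphatase activity; potency for inhibition where a drop in reporter signal means calcineurin blockade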
T3 sequence (B9W6M3 whole entry): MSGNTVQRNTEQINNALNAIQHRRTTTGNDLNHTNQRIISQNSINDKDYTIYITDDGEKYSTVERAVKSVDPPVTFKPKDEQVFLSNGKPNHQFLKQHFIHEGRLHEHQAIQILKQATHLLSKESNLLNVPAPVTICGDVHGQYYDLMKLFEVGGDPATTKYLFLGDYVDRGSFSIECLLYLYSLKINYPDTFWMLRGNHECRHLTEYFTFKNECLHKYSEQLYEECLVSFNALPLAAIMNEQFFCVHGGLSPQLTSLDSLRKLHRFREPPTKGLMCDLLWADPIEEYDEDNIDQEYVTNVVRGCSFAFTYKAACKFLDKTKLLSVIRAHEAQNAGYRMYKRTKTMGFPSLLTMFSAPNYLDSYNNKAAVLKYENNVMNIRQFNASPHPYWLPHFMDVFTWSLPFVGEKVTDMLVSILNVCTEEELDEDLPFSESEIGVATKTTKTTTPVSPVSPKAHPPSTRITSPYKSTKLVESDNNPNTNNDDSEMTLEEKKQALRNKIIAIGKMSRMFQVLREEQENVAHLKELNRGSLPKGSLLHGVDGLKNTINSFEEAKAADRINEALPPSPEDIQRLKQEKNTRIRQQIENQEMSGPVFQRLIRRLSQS

[14] = target: Heat shock protein HSP 90-alpha (Homo sapiens, UniProt P07900); assay type: functional, organism-based
[15] = fluconazole-exposed Candida albicans growth modulators – fluorescence, retest, confirmation (AID 2467); assay type: functional, cell-based
[16] = target: ATP-dependent molecular chaperone HSP82 (Candida albicans (strain WO-1) (Yeast), UniProt C4YTQ8); assay: steroid-induced GRE reporter decrease in yeast – S. cerevisiae, luminescence, Hsp90 inhibitor project, dose response (AID 2400); assay type: functional, cell-based;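 further: beta-galactosidase luminescence from glucocorticoid response element reporter as proxy for Hsp90 function; inhibitor potency where signal loss means Hsp90 inhibition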
Sequence of ATP-dependent molecular chaperone HSP82 (C4YTQ8 whole entry): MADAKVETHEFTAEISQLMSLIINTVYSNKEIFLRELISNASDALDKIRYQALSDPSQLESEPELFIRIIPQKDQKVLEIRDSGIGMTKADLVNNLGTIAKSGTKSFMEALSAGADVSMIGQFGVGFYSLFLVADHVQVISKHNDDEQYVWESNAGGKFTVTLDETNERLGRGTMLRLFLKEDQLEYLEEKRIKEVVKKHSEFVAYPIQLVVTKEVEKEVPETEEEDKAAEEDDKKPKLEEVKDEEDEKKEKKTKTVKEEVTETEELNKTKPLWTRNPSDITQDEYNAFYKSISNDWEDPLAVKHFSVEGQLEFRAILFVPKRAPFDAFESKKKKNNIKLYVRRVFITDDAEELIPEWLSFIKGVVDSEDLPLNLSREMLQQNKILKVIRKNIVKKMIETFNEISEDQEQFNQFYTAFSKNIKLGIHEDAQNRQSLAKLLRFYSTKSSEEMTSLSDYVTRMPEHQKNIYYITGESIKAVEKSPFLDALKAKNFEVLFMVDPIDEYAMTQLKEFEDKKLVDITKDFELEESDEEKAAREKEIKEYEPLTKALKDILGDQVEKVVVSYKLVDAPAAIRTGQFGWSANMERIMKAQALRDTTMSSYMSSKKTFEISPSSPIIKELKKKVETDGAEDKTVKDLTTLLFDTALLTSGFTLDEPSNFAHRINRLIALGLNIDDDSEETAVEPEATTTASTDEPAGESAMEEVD

[17] = NIH-3T3 fibroblast cytotoxicity, dose response, cytotoxicity control, cell-based, fluorescence, Alamar Blue, secondary assay (AID 2327); assay type: functional;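 further: NIH-3T3 mouse fibroblasts cultured with fluconazole at 8 µg/mL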
[18] = system: Streptococcus sp. 'group A'; assay: Streptococcus pyogenes SK(-)GAS viability under kanamycin – luminescence, BacTiterGlo, confirmation, counter-screen for streptokinase expression inhibitor project, dose response (AID 1900); assay type: functional, organism-based
[19] = target: T4, Carboxy-terminal domain RNA polymerase II polypeptide A small phosphatase 1 (Homo sapiens, UniProt Q9GZU7); assay: CTDSP1 inhibitors, concentration-response, biochemical, absorbance readout, ultra-high-throughput screen actives (AID 540297); assay type: functional
T4 sequence (Q9GZU7 whole entry): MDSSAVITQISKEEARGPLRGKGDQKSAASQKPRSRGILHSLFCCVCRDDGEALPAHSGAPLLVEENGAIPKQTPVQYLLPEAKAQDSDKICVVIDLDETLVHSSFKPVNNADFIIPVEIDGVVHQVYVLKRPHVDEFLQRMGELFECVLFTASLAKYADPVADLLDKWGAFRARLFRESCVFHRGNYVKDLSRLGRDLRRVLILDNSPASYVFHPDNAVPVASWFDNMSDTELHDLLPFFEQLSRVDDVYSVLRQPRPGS

[20] = target: DNA dC->dU-editing enzyme APOBEC-3A (Homo sapiens, UniProt P31941); assay: Dose Response confirmation of small molecule APOBEC3A DNA Deaminase Inhibitors via a fluorescence-based single-stranded DNA deaminase assay. [Related pubchem assays (depositor defined):AID493011, AID493024]; assay type: functional
Sequence of DNA dC->dU-editing enzyme APOBEC-3A (P31941 whole entry): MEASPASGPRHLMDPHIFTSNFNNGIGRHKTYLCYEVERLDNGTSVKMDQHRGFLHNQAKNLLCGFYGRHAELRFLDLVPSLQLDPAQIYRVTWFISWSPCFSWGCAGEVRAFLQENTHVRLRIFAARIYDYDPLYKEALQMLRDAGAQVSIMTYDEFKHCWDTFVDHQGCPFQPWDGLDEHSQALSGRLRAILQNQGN

[21] = HEK-293T viability loss after treatment – luminescence, T-cell screen hits, cytotoxicity control for TCR NF-kB inhibitor project, dose response (AID 489026); assay type: functional, cell-based;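 further: cells exposed to compound about 14 hours before the viability readout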
[22] = cells; assay type: functional, cell-based
[23] = system: INS1; assay: INS-1E survival protection against cytokine death – cell-based, luminescence, retest, dose response (AID 449756); assay type: functional; details: Rattus norvegicus;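 further: cell death triggered by IL-1 beta plus TNF-alpha plus IFN-gamma mixture; protective hits raise ATP signal compared with cytokine alone wells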
[24] = microbe, parasite or virus in culture; assay type: functional; details: Mycobacterium tuberculosis
[25] = cells; assay type: functional, cell-based; remark: listed apart in the source

Sequence of Phospholipase A2 (P04054 whole entry): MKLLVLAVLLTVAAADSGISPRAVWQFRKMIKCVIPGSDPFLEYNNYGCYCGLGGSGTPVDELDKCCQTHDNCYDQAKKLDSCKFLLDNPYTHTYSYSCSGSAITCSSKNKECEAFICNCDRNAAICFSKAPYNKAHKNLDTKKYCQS

O=C(CCSc1ccccc1)NCC1CCCO1 (configuration not stated)
AC50 [1]: 30.4 µM (active)

CN(C)[C@@H]1C(O)=C(C(N)=O)C(=O)[C@@]2(O)C(O)=C3C(=O)c4c(O)ccc(Cl)c4[C@@](C)(O)C3C[C@@H]12 (some centres not stated)
IC50 [2]: 5.75 µM (active)
IC50 [3]: > 100 µM (active)
AC50 [4]: 1.2 µM (active)
IC50 [5]: 6.14 µM (active)
AC50 [1]: 47 µM (active)

CCn1c(=O)cc(SCC(=O)Nc2cc(OC)c(OC)c(OC)c2)c2ccccc21
AC50 [6]: 0.355 µM (inconclusive)
EC50 [7]: 76.2 µM (not active)
AC50 [8]: inconclusive
AC50 [9]: inconclusive
EC50 [10]: > 79.4 µM (inactive)
EC50 [11]: > 79.4 µM (not active)

Oc1c(C(c2ccc(Cl)cc2)N2CCCC2)cc(Cl)c2cccnc12 (configuration not stated)
EC50 [12]: 1.41 µM (active)
EC50 [13]: > 180 µM (inactive)
AC50 [14]: 2.02 µM (active)
EC50 [15]: 0.135 µM (active)
EC50 [16]: 22.5 µM (active)
EC50 [17]: 15 µM (active)
EC50 [18]: 1.34 µM (active)

CC(C)[N+]12CCC(CC1)C(C(O)(c1ccccc1)c1ccccc1)C2 (configuration not stated)
IC50 [19]: 8.96 µM (active)
IC50 [20]: 2.71 µM (active)

CN(CC(=O)NCc1cccnc1)S(=O)(=O)c1ccccc1
AC50 [4]: 54.1 µM (active)

COc1cccc(/C=N/Nc2ncnc3scc(-c4ccccc4)c23)c1O
IC50 [21]: 62.5 µM (inactive)
EC50 [22]: 2.21 µM (active)
EC50 [13]: > 180 µM (inactive)
AC50 [14]: 24.5 µM (active)
EC50 [15]: 0.753 µM (active)
EC50 [16]: 17.7 µM (active)
EC50 [17]: > 150 µM (inactive)
AC50 [23]: 0.432 µM (active)
CC50 [24]: 1.31 µM (active)
EC50 [25]: > 350 µM (not active)
